Tests used:
Format in all cases: in vivo
[1] = system: Italian ryegrass (Lolium multiflorum); test: Test D pre-/postemergence plant response; details: Postemergence; for Plant response rating (scale 0 to 100), Ryegrass, Italian: 16 g ai/ha; for Plant response rating, Ryegrass, Italian: 125 g ai/ha
Method in brief: (§1)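 Sown seed (loam/sand soil) treated preemergence; emerged plants, 1- to 4-leaf stage and 2 to 18 cm, treated postemergence in peat/vermiculite medium. Greenhouse incubation 13–15 d. Endpoint: visual 0–100 rating versus untreated.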

[2] = system: galium (catchweed bedstraw, Galium aparine); test: Test D pre-/postemergence plant response; details: Postemergence; for Plant response rating (scale 0 to 100), Galium: 16 g ai/ha; for Galium plant response rating: 31 g ai/ha, scale 0 to 100 (0 no effect, 100 complete control); for Plant response rating, Galium: scale 0 to 100, 0 no effect, 100 complete control
Method in brief: as §1

[3] = system: large (Lg) crabgrass (Digitaria sanguinalis); test: Test D pre-/postemergence plant response; details: Postemergence; for Plant response rating (scale 0 to 100), Crabgrass, Large: 16 g ai/ha; for Crabgrass, Large plant response rating: 31 g ai/ha, scale 0 to 100 (0 no effect, 100 complete control); for Plant response rating, Crabgrass, Large: scale 0 to 100, 0 no effect, 100 complete control
Method in brief: as §1

[4] = system: giant foxtail (Setaria faberii); test: Test D pre-/postemergence plant response; details: Postemergence; for Plant response rating (scale 0 to 100), Foxtail, Giant: 16 g ai/ha; for Foxtail, Giant plant response rating: 31 g ai/ha, scale 0 to 100 (0 no effect, 100 complete control); for Plant response rating, Foxtail, Giant: scale 0 to 100, 0 no effect, 100 complete control
Method in brief: as §1

[5] = system: oilseed rape (Brassica napus); test: Test D pre-/postemergence plant response; details: Postemergence; for Plant response rating (scale 0 to 100), Oilseed Rape: 16 g ai/ha; for Plant response rating, Oilseed Rape: 125 g ai/ha
Method in brief: as §1

[6] = system: yellow nutsedge (Cyperus esculentus); test: Test D pre-/postemergence plant response; details: Postemergence; for Plant response rating (scale 0 to 100), Nutsedge, Yellow: 16 g ai/ha; for Plant response rating, Nutsedge, Yellow: 125 g ai/ha
Method in brief: as §1

[7] = system: ragweed (common ragweed, Ambrosia elatior); test: Test D pre-/postemergence plant response; details: Postemergence; for Plant response rating (scale 0 to 100), Ragweed: 16 g ai/ha; for Plant response rating, Ragweed: 125 g ai/ha
Method in brief: as §1

[8] = system: pigweed (Amaranthus retroflexus); test: Test D pre-/postemergence plant response; details: Postemergence; for Plant response rating (scale 0 to 100), Pigweed: 16 g ai/ha; for Plant response rating, Pigweed: 125 g ai/ha
Method in brief: as §1

[9] = system: barnyardgrass (Echinochloa crus-galli); test: Test D pre-/postemergence plant response; details: Postemergence; for Plant response rating (scale 0 to 100), Barnyardgrass: 16 g ai/ha; for Barnyardgrass plant response rating: 31 g ai/ha, scale 0 to 100 (0 no effect, 100 complete control); for Plant response rating, Barnyardgrass: scale 0 to 100, 0 no effect, 100 complete control
Method in brief: as §1

[10] = system: corn (Zea mays); test: Test D pre-/postemergence plant response; details: Postemergence; for Plant response rating (scale 0 to 100), Corn: 16 g ai/ha; for Corn plant response rating: 31 g ai/ha, scale 0 to 100 (0 no effect, 100 complete control); for Plant response rating, Corn: scale 0 to 100, 0 no effect, 100 complete control
Method in brief: as §1

[11] = system: blackgrass (Alopecurus myosuroides); test: Test D pre-/postemergence plant response; details: Postemergence; for Plant response rating (scale 0 to 100), Blackgrass: 16 g ai/ha; for Blackgrass plant response rating: 31 g ai/ha, scale 0 to 100 (0 no effect, 100 complete control); for Plant response rating, Blackgrass: scale 0 to 100, 0 no effect, 100 complete control
Method in brief: as §1

[12] = system: Italian ryegrass (Lolium multiflorum); test: Test B pre-/postemergence plant response
Method in brief: (§2)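 Greenhouse pots, loam/sand soil; compound formulated with surfactant in non-phytotoxic solvent. Preemergence soil spray and postemergence spray at 1–2 leaf stage run simultaneously. Visual injury, 0–100, about 10 days post-treatment.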

[13] = system: kochia (Kochia scoparia); test: Test B pre-/postemergence plant response
Method in brief: as §2

[14] = system: ragweed (common ragweed, Ambrosia elatior); test: Test B pre-/postemergence plant response
Method in brief: as §2

[15] = 31 g ai/ha, scale 0 to 100 (0 no effect, 100 complete control)
[16] = 62 g ai/ha, scale 0 to 100, 0 no effect, 100 complete control
[17] = scale 0 to 100, 0 no effect, 100 complete control
[18] = 31 g ai/ha, Preemergence, 0 to 100 scale where 0 is no effect and 100 is complete control
[19] = 125 g ai/ha, postemergence, 0 to 100 scale, 0 no effect, 100 complete control
[20] = Postemergence, 31 g ai/ha, 0 to 100 scale (0 no effect, 100 complete control)
[21] = Preemergence, 125 g ai/ha, 0 to 100 scale (0 no effect, 100 complete control)

FCc1cc(-c2ccccc2Oc2ncc(Cl)cn2)on1 [Compound 224]
Plant response rating (scale 0 to 100), Ryegrass, Italian [1]: 0 | Ryegrass, Italian plant response rating [1, 15]: 0 | Ryegrass, Italian plant response rating [1, 16]: 0 | Plant response rating, Ryegrass, Italian [1, 17]: 0 | Plant response rating (scale 0 to 100), Galium [2]: 40 | Galium plant response rating [2]: 50 | Plant response rating, Galium ([2]; 62 g ai/ha): 60 | Plant response rating, Galium ([2]; 125 g ai/ha): 60 | Plant response rating (scale 0 to 100), Crabgrass, Large [3]: 5 | Crabgrass, Large plant response rating [3]: 5 | Plant response rating, Crabgrass, Large ([3]; 62 g ai/ha): 10 | Plant response rating, Crabgrass, Large ([3]; 125 g ai/ha): 10 | Plant response rating (scale 0 to 100), Foxtail, Giant [4]: 0 | Foxtail, Giant plant response rating [4]: 5 | Plant response rating, Foxtail, Giant ([4]; 62 g ai/ha): 5 | Plant response rating, Foxtail, Giant ([4]; 125 g ai/ha): 40 | Plant response rating (scale 0 to 100), Oilseed Rape [5]: 0 | Oilseed Rape plant response rating [5, 15]: 10 | Oilseed Rape plant response rating [5, 16]: 50 | Plant response rating, Oilseed Rape [5, 17]: 98 | Plant response rating (scale 0 to 100), Nutsedge, Yellow [6]: 0 | Nutsedge, Yellow plant response rating [6, 15]: 0 | Nutsedge, Yellow plant response rating [6, 16]: 5 | Plant response rating, Nutsedge, Yellow [6, 17]: 5 | Plant response rating (scale 0 to 100), Ragweed [7]: 30 | Ragweed plant response rating [7, 15]: 55 | Ragweed plant response rating [7, 16]: 55 | Plant response rating, Ragweed [7, 17]: 70 | Plant response rating (scale 0 to 100), Pigweed [8]: 85 | Pigweed plant response rating [8, 15]: 85 | Pigweed plant response rating [8, 16]: 85 | Plant response rating, Pigweed [8, 17]: 90 | Plant response rating (scale 0 to 100), Barnyardgrass [9]: 5 | Barnyardgrass plant response rating [9]: 5 | Plant response rating, Barnyardgrass ([9]; 62 g ai/ha): 10 | Plant response rating, Barnyardgrass ([9]; 125 g ai/ha): 15 | Plant response rating (scale 0 to 100), Corn [10]: 0 | Corn plant response rating [10]: 5 | Plant response rating, Corn ([10]; 62 g ai/ha): 5 | Plant response rating, Corn ([10]; 125 g ai/ha): 5 | Plant response rating (scale 0 to 100), Blackgrass [11]: 0 | Blackgrass plant response rating [11]: 0 | Plant response rating, Blackgrass ([11]; 62 g ai/ha): 5 | Plant response rating, Blackgrass ([11]; 125 g ai/ha): 0 | Plant response rating, Ryegrass, Italian [12, 18]: 0 | Plant response rating, Ryegrass, Italian [12, 19]: 0 | Plant response rating, Ryegrass, Italian [12, 20]: 0 | Ryegrass, Italian plant response rating [12, 21]: 0 | Plant response rating, Kochia [13, 18]: 60 | Plant response rating, Kochia [13, 19]: 100 | Plant response rating, Kochia [13, 20]: 70 | Kochia plant response rating [13, 21]: 90 | Plant response rating, Ragweed [14, 19]: 100 | Plant response rating, Ragweed [14, 20]: 50

Fc1cccc(Oc2ncc(Cl)cn2)c1-c1cc(C(F)(F)F)no1 [Compound 228]
Plant response rating (scale 0 to 100), Ryegrass, Italian [1]: 0 | Ryegrass, Italian plant response rating [1, 15]: 5 | Ryegrass, Italian plant response rating [1, 16]: 15 | Plant response rating, Ryegrass, Italian [1, 17]: 25 | Plant response rating (scale 0 to 100), Galium [2]: 85 | Galium plant response rating [2]: 98 | Plant response rating, Galium ([2]; 62 g ai/ha): 98 | Plant response rating, Galium ([2]; 125 g ai/ha): 100 | Plant response rating (scale 0 to 100), Crabgrass, Large [3]: 15 | Crabgrass, Large plant response rating [3]: 20 | Plant response rating, Crabgrass, Large ([3]; 62 g ai/ha): 35 | Plant response rating, Crabgrass, Large ([3]; 125 g ai/ha): 45 | Plant response rating (scale 0 to 100), Foxtail, Giant [4]: 10 | Foxtail, Giant plant response rating [4]: 10 | Plant response rating, Foxtail, Giant ([4]; 62 g ai/ha): 20 | Plant response rating, Foxtail, Giant ([4]; 125 g ai/ha): 40 | Plant response rating (scale 0 to 100), Oilseed Rape [5]: 65 | Oilseed Rape plant response rating [5, 15]: 85 | Oilseed Rape plant response rating [5, 16]: 80 | Plant response rating, Oilseed Rape [5, 17]: 98 | Plant response rating (scale 0 to 100), Nutsedge, Yellow [6]: 5 | Nutsedge, Yellow plant response rating [6, 15]: 5 | Nutsedge, Yellow plant response rating [6, 16]: 5 | Plant response rating, Nutsedge, Yellow [6, 17]: 10 | Plant response rating (scale 0 to 100), Ragweed [7]: 20 | Ragweed plant response rating [7, 15]: 35 | Ragweed plant response rating [7, 16]: 60 | Plant response rating, Ragweed [7, 17]: 60 | Plant response rating (scale 0 to 100), Pigweed [8]: 85 | Pigweed plant response rating [8, 15]: 95 | Pigweed plant response rating [8, 16]: 95 | Plant response rating, Pigweed [8, 17]: 98 | Plant response rating (scale 0 to 100), Barnyardgrass [9]: 15 | Barnyardgrass plant response rating [9]: 20 | Plant response rating, Barnyardgrass ([9]; 62 g ai/ha): 20 | Plant response rating, Barnyardgrass ([9]; 125 g ai/ha): 35 | Plant response rating (scale 0 to 100), Corn [10]: 5 | Corn plant response rating [10]: 10 | Plant response rating, Corn ([10]; 62 g ai/ha): 10 | Plant response rating, Corn ([10]; 125 g ai/ha): 10 | Plant response rating (scale 0 to 100), Blackgrass [11]: 15 | Blackgrass plant response rating [11]: 15 | Plant response rating, Blackgrass ([11]; 62 g ai/ha): 25 | Plant response rating, Blackgrass ([11]; 125 g ai/ha): 35 | Plant response rating, Ryegrass, Italian [12, 18]: 30 | Plant response rating, Ryegrass, Italian [12, 19]: 90 | Plant response rating, Ryegrass, Italian [12, 20]: 20 | Ryegrass, Italian plant response rating [12, 21]: 70 | Plant response rating, Kochia [13, 18]: 70 | Plant response rating, Kochia [13, 19]: 100 | Plant response rating, Kochia [13, 20]: 100 | Kochia plant response rating [13, 21]: 100 | Plant response rating, Ragweed [14, 18]: 0 | Plant response rating, Ragweed [14, 19]: 40 | Plant response rating, Ragweed [14, 20]: 30 | Ragweed plant response rating [14, 21]: 30

— US10131652B2, “Pyrimidinyloxy benzene derivatives as herbicides” (E. I. DU PONT DE NEMOURS AND COMPANY, priority 2014, dated 2018)
